Data: US7211269B2, “Cosmetic or dermatological use of peptides for promoting adhesion between skin cells” (Societe d' Extraction de Principes Actifs S.A., priority 2001, dated 2007)
Where no end group is shown, it is not given here.

Columns and labels:
[1] = tested on: fibroblasts and keratinocytes in culture; assay: Peptide applied to fibroblasts and keratinocytes in culture, HPLC analysis of the culture medium; format: cell-based, human
Procedure: (§1) Human fibroblasts and keratinocytes were cultivated during 24 hours at 37° C. and 5% of CO2. For this period, the cells will release many degradation enzymes in the culture medium. Thereafter, the culture medium is removed to be put in the presence of the peptide.
A test is carried out by applying the peptide to the fibroblasts and to the keratinocytes in culture.
This assumption is then consolidated by the tests of effectiveness exposed in the […]

keratinocytes = assay: Adhesion of keratinocytes to pre-treated 96 wells micro-plates (MTT, OD reading); format: cell-based
Procedure: The study is carried out in 96 wells micro-plates on keratinocytes cultured in an incubator at 37° C. and 5% of CO2. The wells of these plates are pre-treated, for 12 hours, in different ways; four conditions have been realized: • Condition A: negative control, not containing peptide; • Condition B: incubated with various peptides, made up from 3 to 25 amino acids, with a concentration of 35 ppm; • Condition C: incubated with collagen of the type I with a concentration of 60 ppm; • Condition D: incubated with the peptide of sequence (Gly-Pro-Gln)2-NH2 (SEQ ID NO: 2) to a concentration of 5 ppm.
After 3 hours of contact with the keratinocytes, the wells are completely filled with medium, hermetically closed, turned over and agitated on a three-dimensional agitator during 20 minutes. Then the plates are emptied and the remaining medium is aspired. Then, 100 μl of MTT with 1 mg/ml are added by wells and are left for 3 hours at 37° C. and 5% CO2. The solution is finally withdrawn, then 100 μl of DMSO is added. A reading of the OD is made at 560 nm against 630 nm.
The OD is proportional to the quantity of viable cells, i.e. which adhered to the micro-plates.

[2] = Stability of the peptide in culture medium removed from human fibroblasts and keratinocytes (released degradation enzymes), HPLC; format: in vitro ADME; settings: medium from human fibroblasts and keratinocytes cultivated 24 hours at 37° C.; after 24 hours with peptide
Procedure: (§2) The Peptide (Gly-Pro-Gln)2-NH2 (SEQ ID NO: 2) was analyzed with a concentration of 10^-4 M by HPLC on a column of the C18 type, and with a linear gradient water/TFA 0.1%—acetonitril/TFA 0.1%.
as §1

[3] = Stability of the peptide by HPLC at various temperatures; format: physicochemical; settings: 10^-4 M
Procedure: as §2

In the case of GPQGPQ-NH2 [(Gly-Pro-Gln)2-NH2], the “peptide concentration in the culture medium” value [1] was “decreases quickly”, the “cell adhesion (in words)” value (keratinocytes; 5 ppm, after 3 hours of contact with the keratinocytes, compared with collagen of the type I at 60 ppm) was “good cell adhesion, similar to that of the collagen of the type I” and the “O.D. (proportional to quantity of viable adhered cells)” value (keratinocytes; Condition D: wells pre-treated 12 hours with 5 ppm, 3 hours of contact with keratinocytes, OD 560 nm against 630 nm) was 0.620. For the same substance, the “degradation of the peptide in cell-conditioned culture medium” value [2] was “almost no degradation”, the “decomposition of peptide (HPLC)” value ([3]; after 24 hours at 25° C., 37° C. and 60° C.) was “no decomposition” and the “peptide degradation (HPLC)” value ([3]; after 8 days at 25° C.) was “no peptide degradation”.
